Test results: patent publication US4963570A, “1-(acetylaminophenyl)-2-aminopropanone derivatives and pharmaceutical compositions thereof” (Laboratoire L. Lafon, priority 1983, dated 1990)
“Also recorded” adds a separate entry of the source. Counter-ions that a name gives are not always drawn.

Experiments:
male mice = experiment: acute toxicity, intraperitoneal (lethal doses); assay type: in vivo, mouse; conditions: i.p.
Description: By intraperitoneal administration to male mice, the LD-30 (lethal dose for 30% of the animals tested) is of the order of 128 mg/kg and the LD-50 is of the order of about 200 mg/kg.

mice [1] = experiment: overall behavior and reactivities in mice; assay type: in vivo, mouse; conditions: mice, i.p.; dose not stated
Description: (§1) Groups of three animals are observed before and then 0.25 hour, 0.50 hour, 1 hour, 2 hours, 3 hours and 24 hours after the administration of CRL 41 224.

rats [2] = experiment: overall behavior and reactivities in rats; assay type: in vivo, rat; conditions: i.p., dose not stated
Description: as §1

mice [3] = experiment: interaction with apomorphine in mice; assay type: in vivo, mouse; conditions: i.p.
Description: Groups of 6 mice receive CRL 41 224 0.5 hour before the subcutaneous injection of 1 or 16 mg/kg of apomorphine.

rats [4] = experiment: interaction with apomorphine in rats; assay type: in vivo, rat; conditions: i.p., dose not stated
Description: CRL 41 224 is administered to groups of 6 rats 0.5 hour before the subcutaneous injection of 0.5 mg/kg of apomorphine.

rats [5] = experiment: interaction with amphetamine; assay type: in vivo, rat; conditions: rats, i.p.; dose not stated
Description: Amphetamine (2 mg/kg) is injected intraperitoneally into groups of 6 rats 30 minutes after the administration of CRL 41 224.

mice [6] = experiment: interaction with reserpine; assay type: in vivo, mouse; conditions: i.p.
Description: Four hours after the intraperitoneal injection of 2.5 mg/kg of reserpine, groups of 6 mice receive CRL 41 224.

mice [7] = experiment: interaction with oxotremorine; assay type: in vivo, mouse; conditions: i.p.
Description: CRL 41 224 is administered to groups of 6 mice 0.5 hour before the intraperitoneal injection of 0.5 mg/kg of oxotremorine.

mice [8] = experiment: four plate test, traction and electric shock; assay type: in vivo, mouse; conditions: i.p., strong/high dose
Description: The test is performed on groups of 10 mice 30 minutes after the administration of CRL 41 224.

mice [9] = experiment: action on the spontaneous motility (actimeter); assay type: in vivo, mouse; conditions: mice, i.p.; dose not stated
Description: 0.5 hour after they have received CRL 41 224, the mice (6 per dose, 12 control animals) are placed in an actimeter, where their motility is recorded for 30 minutes.

mice [10] = experiment: motility reduced by habituation to the enclosure; assay type: in vivo, mouse; conditions: i.p.
Description: After they have stayed in the actimeters for 18 hours, the mice (6 per dose, 12 control animals) receive CRL 41 224. They are immediately returned to their respective enclosures and, half an hour later, their motility is recorded for 30 minutes.

mice [11] = experiment: motility reduced by hypoxic aggression; assay type: in vivo, mouse; conditions: i.p., dose not stated
Description: Half an hour after they have received CRL 41 224, the mice (10 per dose, 20 control animals) are subjected to acute hypobaric anoxia [pressure reduction of 600 mm Hg (i.e. about 8×10^4 Pa) in 90 seconds; release of vacuum in 45 seconds] and are then placed in an actimeter, where their motility is recorded for 10 minutes.

mice [12] = experiment: asphyxiant anoxia (gallamine triiodoethylate); assay type: in vivo, mouse; conditions: i.p., high dose
Description: Groups of 10 mice receive CRL 41 224 half an hour before the intraperitoneal administration of 32 mg/kg of gallamine triiodoethylate (reference curarizing agent).

mice [13] = experiment: interaction with barbital; assay type: in vivo, mouse; conditions: i.p.
Description: Half an hour after the administration of CRL 41 224, groups of 10 mice receive an intraperitoneal injection of barbital (220 mg/kg).

mice [14] = experiment: action on the behavioral despair; assay type: in vivo, mouse; conditions: i.p., dose not stated
From the text: Half an hour after they have received CRL 41 224, groups of 6 mice are placed in a beaker filled with water to a height of 6 cm. The total period of immobility between the 2nd and 6th minutes following immersion is noted.

[15] = system: spleen cells expressing a direct IgM antibody response; experiment: test for cells forming lysis areas (PFC IgM, Cunningham); assay type: in vivo, mouse; conditions: oral; for activity index I / counts ± e.s.m. (lysis areas per spleen): mice
Description: Immunological assays were carried out in order to point out the interest of CRL 41 240 as an immunomodulating agent. Specifically, the test used was the so-called test for cells forming lysis areas, described by A. J. […] et al. ("Further improvements in the plaque technique for detecting simple antibody forming cells"), Immunology 14, pages 599-601 (1968).
The test for cells forming lysis areas (or PFC IgM) explores the humoral immunity. Four days after immunization with a T-dependent antigen (in this case red blood corpuscles of sheep), the spleen cells expressing a direct IgM antibody response are counted. The mice used for this purpose are conventional female OF1 mice devoid of specific pathogenic organisms, weighing from 20 to 30 g and divided up into a control group of 14 animals and groups each containing 7 animals per dose and per product to be studied, administered orally on the same day as the antigen. An activity index I is calculated for each dose of product according to the following equation: [formula]
This test is performed at least twice for each dose of test product [C(control amimals), 0.01, 0.1, 10 and 100 mg/kg] and a statistical study is undertaken using the Student t test after variance analysis on the number of lyses per spleen.

CNS = experiment: overall neuropsychopharmacological (CNS) profile; assay type: in vivo, mouse; rat; conditions: i.p.
Description: The neuropsychopharmacological study of CRL 41 219 was carried out as indicated above for CRL 41 224.
The neuropsychopharmacological study of CRL 41 220 was carried out in accordance with the procedures given above for CRL 41 224.

[16] = system: peripheral α-adrenergic stimulation; experiment: signs of peripheral adrenergic stimulation; assay type: in vivo, mouse; rat; conditions: i.p.; dose not stated
Description: as §1

immunological properties = experiment: immunological properties, overall; assay type: in vivo; conditions: dose not stated
From the text: The present 1-(acetylaminophenyl)-2-aminopropanone derivatives are useful in therapy. They all act on the CNS, more precisely as antidepressants. They have a stimulant or excitant component in their neuropsychopharmacological profile.

[17] = system: spleen cells expressing a direct IgM antibody response; experiment: test for cells forming lysis areas (PFC IgM, Cunningham); assay type: in vivo, mouse; conditions: 1 mg/kg
[18] = system: delayed hypersensitivity to the red blood corpuscles of sheep; experiment: delayed hypersensitivity to the red blood corpuscles of sheep (Miller); assay type: in vivo; conditions: oral, 10 to 100 mg/kg

## CC(=O)Nc1ccc(C(=O)C(C)N2CCCCC2)cc1 (stereo not drawn) [CRL 41 240, 1-(4-acetylaminophenyl)-2-piperidinopropanone hydrochloride]
Male mice
  LD-0 (maximum non-lethal dose): greater than 256 mg/kg
Mice [1]
  excitation in mice: excitation in mice
  stereotype movements in mice: presence of stereotype movements
Rats [2]
  excitation in rats: excitation in mice and rats
  stereotype movements in rats: presence of stereotype movements
Mice [3]; dose not stated
  hypothermia induced by apomorphine: antagonism of the hypothermia induced by apomorphine
Rats [4]
  stereotypies induced by apomorphine: potentiation of the stereotypies induced by apomorphine
Rats [5]
  stereotypies induced by amphetamine: potentiation of the stereotypies induced by apomorphine and amphetamine
Mice [6]; dose not stated
  hypothermia induced by reserpine: antagonism of the hypothermia induced by apomorphine, reserpine
  ptosis induced by reserpine: antagonism of the ptosis induced by reserpine
Mice [7]; dose not stated
  hypothermia induced by oxotremorine: antagonism of the hypothermia induced by apomorphine, reserpine and oxotremorine
Mice [8]
  convulsant effects of electric shock: antagonism of the convulsant effects of electric shock
Mice [9]
  spontaneous motility / motor activity: increase in the motor activity
Mice [10]; dose not stated
  motor activity after habituation to the enclosure: resumption in the activity of mice accustomed to their enclosure
Mice [11]
  motor recovery after hypoxic aggression: improvement in the motor recovery
Mice [12]
  time taken for asphyxiant convulsions (and death) to occur: increase in the time taken for asphyxiant convulsions to occur
Mice [13]; dose not stated
  sleep induced by barbital: very distinct antagonism of the sleep induced by barbital
Mice [14]
  period of immobility or "despair": reduction in the period of immobility
[15]; Mus musculus, female OF1 mice, read-out: lowest immunologically active dose
  minimal effective dose: 0.1 mg/kg
[15]; 0.01 mg/kg
  activity index I: 1.23
  counts ± e.s.m. (lysis areas per spleen): 64.5 ± 11.99 m.10^3 /rate
[15]; 0.1 mg/kg
  activity index I: 1.25
  counts ± e.s.m. (lysis areas per spleen): 65.7 ± 11.60 m.10^3 /rate
[15]; 10 mg/kg
  activity index I: 1.52
  counts ± e.s.m. (lysis areas per spleen): 79.4 ± 11.54 m.10^3 /rate
[15]; 100 mg/kg
  activity index I: 1.31
  counts ± e.s.m. (lysis areas per spleen): 68.8 ± 7.21 m.10^3 /rate
CNS; mice and rats, dose not stated
  overall action on the CNS: behaves as an antidepressant and stimulant for the CNS
[16]
  exophthalmos: exophthalmos
  mydriasis: mydriasis
  peripheral adrenergic stimulation, overall: peripheral α-adrenergic stimulation
Immunological properties
  immunological properties, overall: beneficial immunomodulating effects
[17]; mice, oral
  activity index I: 1.65
  counts ± e.s.m. (lysis areas per spleen): 86.5 ± 13.74 m.10^3 /rate

## CC(=O)Nc1cccc(C(=O)C(C)NC(C)C)c1 (stereo not drawn) [CRL 41 254]
Male mice
  LD-0 (maximum non-lethal dose): greater than 256 mg/kg
  LD-100: less than or equal to 512 mg/kg
Mice [3]; strong doses
  hypothermia induced by apomorphine: antagonism of the hypothermia induced by apomorphine
Mice [6]; strong doses
  hypothermia induced by reserpine: no antagonism of the hypothermia induced by reserpine
Mice [7]; strong/high doses
  hypothermia induced by oxotremorine: antagonism of the hypothermia induced by apomorphine and oxotremorine
Mice [10]; strong doses
  motor activity after habituation to the enclosure: a moderate resumption in the motor activity of mice accustomed to their enclosure
Mice [13]; strong/high doses
  duration of the sleep induced by barbital: a reduction in the duration of the sleep induced by barbital
[18]
  immunostimulant activity, delayed hypersensitivity: statistically significant immunostimulant activity
CNS; strong/high doses
  overall action on the CNS: modest antidepressant effects; also recorded: weak stimulant effects
Immunological properties
  immunological properties, overall: beneficial immunomodulating effects
[17]
  immunostimulant activity, PFC IgM test: statistically significant immunostimulant activity
